Assay [1] deals with T1, PRMT5/MEP50 (Homo sapiens, UniProt O14744).
T1 construct: Full-length human PRMT5 (NP_006100)
Nature of the assay: PRMT5/MEP50 enzyme assay on peptide substrates (3H-SAM Flashplate). It is filed as biochemical. To be noted: PRMT5/MEP50 10 nM, H4 1-15aa peptide 100 nM, 3H-SAM 1 μM. The text has this: General materials like S-adenocylmethionine (SAM), S-adenosylhomocysteine (SAH), Tris-HCl, DTT, […] (BSA) and Tween-20 were purchased from Sigma-Aldrich. 3H-SAM and 384-well streptavidin Flashplates were purchased from Perkin Elmer. Substrates that were used were Peptide representative of human Histone 4 residues 1-15 which was purchased from Rockland antibodies and assays.
PRMT5/MEP50 Enzyme assay on Peptide Substrates.
The assays were all performed in a buffer consisting of 50 mMTris-HCl, pH 8, 1 mM DTT, 0.01% BSA, 0.01% Tween-20, prepared on the day of use. Test compounds were diluted 3-fold in assay buffer (final DMSO concentration of 1%) and added into a 384-well OptiPlate (PerkinElmer, #6007290). A cocktail (10 μL) of PRMT5/MEP50 enzyme and the peptide was added to the wells. The compounds were allowed to incubate with PRMT5/MEP50 for 30 min at room temperature, then 5 μL of ^3H-SAM was added to initiate the reaction. The final concentrations of the components were as follows: PRMT5/MEP50-10 nM, H4, 1-15aa peptide-100 nM, ^3H-SAM-1 μM. The assays were stopped by the addition of 1 mM SAH. 25 μL of the reaction from the 384-well OptiPlate was then transferred to a 384-well Flashplate and the biotinylated peptides were allowed to bind to the streptavidin surface for at least 1 h, before being washed twice with 50 mMTris-HCl, pH 8, 0.1% Tween-20. The plates were then read in a PerkinElmer Topcount plate reader to measure the quantity of ^3H-labeled peptide bound to the Flashplate surface measured as disintegrations per minute (dpm), also referred to as counts per minute (cpm).
The IC50 values were calculated using a 4-parameter variable slope fit algorithm (cpm—counts per minute, cmpd—signal in assay well, and cpmmax and cpmmin mare the respective minimum and maximum signal controls).

The test system of assay [2] is Z-138 cells. Nature of the assay: Z-138 long term proliferation assay (Cell Titer Glo). The assay is classed as cell-based. As to conditions: Homo sapiens, 192 h; Z-138 cells, cell viability, day 8; read-out: PRMT5 Z138 GI50 Day 8 μM. How it is done: A compound source plate was prepared by performing ten-point 3-fold dilution in DMSO, such that the final top concentration of the compound was 10 μM, and DMSO was 0.3%. The total volume of compounds added was 20 μL. The cells were incubated for 96 h at 37° C., 5% CO2. […] The cells were re-treated with the compounds and incubated for an additional four days. Cell viability was measured on both day 4 and day 8, by adding 25 μL of Cell Titer Glo reagent to an equal volume of cell suspension. Luminescence was read on a PerkinElmer Victor3 multiplate reader. The concentration of compound inhibiting cell viability by 50% was determined using a 4-parameter, variable slope fit of the normalized dose response curves.
For orientation: In ATP-based viability assays light output follows the ATP content of the culture.

One may read the IC50 as the concentration that inhibits the measured activity by half. For orientation: GI50 means the concentration giving 50% growth inhibition.

T1 sequence (O14744 whole entry): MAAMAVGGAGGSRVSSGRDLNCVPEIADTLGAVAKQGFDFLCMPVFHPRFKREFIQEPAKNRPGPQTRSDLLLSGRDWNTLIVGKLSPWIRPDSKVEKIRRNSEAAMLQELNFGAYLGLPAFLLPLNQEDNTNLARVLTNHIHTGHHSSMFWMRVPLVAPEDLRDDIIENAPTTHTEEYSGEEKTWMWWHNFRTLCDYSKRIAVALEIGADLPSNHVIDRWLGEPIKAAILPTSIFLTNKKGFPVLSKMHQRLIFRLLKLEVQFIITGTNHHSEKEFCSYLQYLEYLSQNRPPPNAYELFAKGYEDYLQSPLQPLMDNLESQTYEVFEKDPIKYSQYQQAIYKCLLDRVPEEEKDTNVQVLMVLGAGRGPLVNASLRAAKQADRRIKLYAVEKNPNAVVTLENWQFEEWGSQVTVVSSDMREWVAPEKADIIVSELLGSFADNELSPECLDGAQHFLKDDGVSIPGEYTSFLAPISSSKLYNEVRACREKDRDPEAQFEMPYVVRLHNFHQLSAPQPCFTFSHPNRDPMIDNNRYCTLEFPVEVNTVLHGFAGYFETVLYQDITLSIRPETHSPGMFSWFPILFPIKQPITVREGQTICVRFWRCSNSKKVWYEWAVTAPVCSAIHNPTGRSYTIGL
T1 sequence (Q9BQA1 whole entry partner): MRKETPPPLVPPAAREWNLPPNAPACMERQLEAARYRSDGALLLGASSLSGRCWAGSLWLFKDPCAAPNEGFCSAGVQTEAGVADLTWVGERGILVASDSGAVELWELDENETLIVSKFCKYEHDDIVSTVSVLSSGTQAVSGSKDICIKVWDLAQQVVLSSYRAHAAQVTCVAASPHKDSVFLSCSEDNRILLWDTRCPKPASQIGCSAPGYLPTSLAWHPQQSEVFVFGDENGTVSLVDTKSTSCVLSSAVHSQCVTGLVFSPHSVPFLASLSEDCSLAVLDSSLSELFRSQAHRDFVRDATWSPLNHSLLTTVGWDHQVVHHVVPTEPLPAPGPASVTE

Compound `Cc1cn2c(C)c(C(=O)NC[C@H](O)CN3CCc4ccccc4C3)nc2cn1` [Example 55, (S)—N-(3-(3,4-dihydroisoquinolin-2(1H)-yl)-2-hydroxypropyl)-3,6-dimethylimidazo[1,2-a]pyrazine-2-carboxamide] yielded an IC50 in assay [1] of 1000 to 5000 nM. In addition, the GI50 in assay [2] lay in the range of 1000 to 5000 nM.
As to `CNC(=O)c1ccc2nc(C(=O)NC[C@H](O)CN3CCc4ccccc4C3)cn2c1` [Example 38, (S)—N2-(3-(3,4-dihydroisoquinolin-2(1H)-yl)-2-hydroxypropyl)-N6-methylimidazo[1,2-a]pyridine-2,6-dicarboxamide], the IC50 in assay [1] was in the range of 10 to 1000 nM. Moreover, the GI50 in assay [2] fell in the range of 10 to 1000 nM.
On to `O=C(NC[C@H](O)CN1CCc2ccccc2C1)c1cn2cc(N3CCC(F)C3)ccc2n1` (stereo partly drawn) [Example 70, N—((S)-3-(3,4-dihydroisoquinolin-2(1H)-yl)-2-hydroxypropyl)-6-(3-fluoropyrrolidin-1-yl)imidazo[1,2-a]pyridine-2-carboxamide], for which the IC50 in assay [1] was 10 to 1000 nM. Besides, the GI50 in assay [2] fell in the range of 1000 to 5000 nM.
Compound `O=C(NC[C@H](O)CN1CCc2ccccc2C1)c1cn2cc(C(F)(F)F)ncc2n1` [Example 53, (S)—N-(3-(3,4-dihydroisoquinolin-2(1H)-yl)-2-hydroxypropyl)-6-(trifluoromethyl)imidazo[1,2-a]pyrazine-2-carboxamide] yielded an IC50 in assay [1] of 10 to 1000 nM. In assay [2], the GI50 lay in the range of 1000 to 5000 nM.
For `Cc1cn2cc(C(=O)NC[C@H](O)CN3CCc4ccccc4C3)nc2cn1` [Example 57], the IC50 in assay [1] was in the range of 1000 to 5000 nM. In addition, the GI50 in assay [2] is 1000 to 5000 nM.
Take `Cn1cc(-c2ccn3nc(C(=O)NC[C@H](O)CN4CCc5ccccc5C4)cc3n2)cn1` [Example 62, (S)—N-(3-(3,4-dihydroisoquinolin-2(1H)-yl)-2-hydroxypropyl)-5-(1-methyl-1H-pyrazol-4-yl)pyrazolo[1,5-a]pyrimidine-2-carboxamide]: the IC50 in assay [1] lay within 1000 to 5000 nM. In assay [2], the GI50 is 1000 to 5000 nM.
`Cc1c(C(=O)NC[C@H](O)CN2CCc3ccccc3C2)nc2cnc(-c3ccn(C)c(=O)c3)cn12` [Example 65, (S)—N-(3-(3,4-dihydroisoquinolin-2(1H)-yl)-2-hydroxypropyl)-3-methyl-6-(1-methyl-2-oxo-1,2-dihydropyridin-4-yl)imidazo[1,2-a]pyrazine-2-carboxamide]: the IC50 in assay [1] lay in the range of 10 to 1000 nM. The GI50 in assay [2] is 10 to 1000 nM.
With `O=C(NC[C@H](O)[C@@H](O)CN1CCc2ccccc2C1)c1cn2cc(-c3cnn([C@@H]4CCOC4)c3)ccc2n1` [Example 79, N-((2S,3S)-4-(3,4-dihydroisoquinolin-2(1H)-yl)-2,3-dihydroxybutyl)-6-(1-((R)-tetrahydrofuran-3-yl)-1H-pyrazol-4-yl)imidazo[1,2-a]pyridine-2-carboxamide], the IC50 in assay [1] was in the range of 10 to 1000 nM. Besides, the GI50 in assay [2] lay in the range of 10 to 1000 nM.
`CN(C[C@H](O)CN1CCc2ccccc2C1)C(=O)c1cn2cc(-c3ccc(=O)n(C)c3)ncc2n1` [Example 94, (R)—N-(3-(3,4-dihydroisoquinolin-2(1H)-yl)-2-hydroxypropyl)-N-methyl-6-(1-methyl-6-oxo-1,6-dihydropyridin-3-yl)imidazo[1,2-a]pyrazine-2-carboxamide] gave an IC50 in assay [1] of 1000 to 5000 nM. Moreover, the GI50 in assay [2] lay within 1000 to 5000 nM.
For the compound `O=C(NC[C@@H](O)[C@H](O)CN1CCc2ccccc2C1)c1cn2cc(C(F)(F)F)ccc2n1` [Example 77, N-((2R,3R)-4-(3,4-dihydroisoquinolin-2(1H)-yl)-2,3-dihydroxybutyl)-6-(trifluoromethyl)imidazo[1,2-a]pyridine-2-carboxamide], the IC50 in assay [1] fell in the range of 10 to 1000 nM. Moreover, in assay [2], the GI50 was in the range of 10 to 1000 nM.
The compound `CC(=O)N1CCC(c2ccc3nc(C(=O)NC[C@H](O)CN4CCc5ccccc5C4)cn3n2)CC1` [Example 49, (S)-6-(1-acetylpiperidin-4-yl)-N-(3-(3,4-dihydroisoquinolin-2(1H)-yl)-2-hydroxypropyl)imidazo[1,2-b]pyridazine-2-carboxamide] had an IC50 in assay [1] of 10 to 1000 nM. The GI50 in assay [2] is 10 to 1000 nM.
As for `Cc1nc(-c2ccc3nc(C(=O)NC[C@H](O)CN4CCc5ccccc5C4)cn3c2)sc1C` [Example 32, (S)—N-(3-(3,4-dihydroisoquinolin-2(1H)-yl)-2-hydroxypropyl)-6-(4,5-dimethylthiazol-2-yl)imidazo[1,2-a]pyridine-2-carboxamide], in assay [1], the IC50 lay within 10 to 1000 nM. Further, the GI50 in assay [2] was in the range of 10 to 1000 nM.
Consider `Cn1cc([C@H]2CCc3nc(C(=O)NC[C@H](O)CN4CCc5ccccc5C4)cn3C2)cn1` [Example 120A, (R)—N—((S)-3-(3,4-dihydroisoquinolin-2(1H)-yl)-2-hydroxypropyl)-6-(1-methyl-1H-pyrazol-4-yl)-5,6,7,8-tetrahydroimidazo[1,2-a]pyridine-2-carboxamide], for which the IC50 in assay [1] was in the range of 10 to 1000 nM. Moreover, the GI50 in assay [2] was in the range of 10 to 1000 nM.
In turn, `Cn1ccc(-c2cnc3nc(C(=O)NC[C@H](O)CN4CCc5ccccc5C4)cn3c2)cc1=O` [Example 44, (S)—N-(3-(3,4-dihydroisoquinolin-2(1H)-yl)-2-hydroxypropyl)-6-(1-methyl-2-oxo-1,2-dihydropyridin-4-yl)imidazo[1,2-a]pyrimidine-2-carboxamide] had an IC50 in assay [1] of 10 to 1000 nM. In addition, the GI50 in assay [2] lay within 10 to 1000 nM.
In the case of `Cn1ccc(-c2ccc3nc(C(=O)NC[C@H](O)[C@@H](O)CN4CCc5ccccc5C4)cn3c2)cc1=O` [Example 80, N-((2S,3S)-4-(3,4-dihydroisoquinolin-2(1H)-yl)-2,3-dihydroxybutyl)-6-(1-methyl-2-oxo-1,2-dihydropyridin-4-yl)imidazo[1,2-a]pyridine-2-carboxamide], in assay [1], the IC50 lay in the range of 10 to 1000 nM. For the same compound, the GI50 in assay [2] is 10 to 1000 nM.
In turn, `Cc1ncc(-c2ccc3nc(C(=O)NC[C@H](O)CN4CCc5ccccc5C4)cn3c2)cn1` [Example 28, (S)—N-(3-(3,4-dihydroisoquinolin-2(1H)-yl)-2-hydroxypropyl)-6-(2-methylpyrimidin-5-yl)imidazo[1,2-a]pyridine-2-carboxamide] registered an IC50 in assay [1] of 10 to 1000 nM. In assay [2], the GI50 is 10 to 1000 nM.
Consider `Cc1c(C(=O)NC[C@H](O)CN2CCc3ccccc3C2)nc2cnc(-c3cnn(C)c3)cn12` [Example 64, (S)—N-(3-(3,4-dihydroisoquinolin-2(1H)-yl)-2-hydroxypropyl)-3-methyl-6-(1-methyl-1H-pyrazol-4-yl)imidazo[1,2-a]pyrazine-2-carboxamide], for which, in assay [1], the IC50 was in the range of 10 to 1000 nM. The GI50 in assay [2] lay within 10 to 1000 nM.
In assay [1], `O=C(NCC(O)CNC1Cc2ccccc2C1)c1cn2cc(C3CCOCC3)ccc2n1` (stereo not shown) [Example 97, N-(3-((2,3-dihydro-1H-inden-2-yl)amino)-2-hydroxypropyl)-6-(tetrahydro-2H-pyran-4-yl)imidazo[1,2-a]pyridine-2-carboxamide] gave an IC50 of 10 to 1000 nM. For the same compound, in assay [2], the GI50 was in the range of 10 to 1000 nM.
`CC(=O)N1CCC(C2CCc3nc(C(=O)NC[C@H](O)CN4CCc5ccccc5C4)cn3C2)CC1` (single isomer, unassigned) [Example 118A] had an IC50 in assay [1] of 10 to 1000 nM. Further, in assay [2], the GI50 is 10 to 1000 nM.
In assay [1], `Cc1ccn2nc(C(=O)NC[C@H](O)CN3CCc4ccccc4C3)c(F)c2n1` [Example 67] showed an IC50 of 1000 to 5000 nM. In assay [2], the GI50 was greater than 5000 nM.

(Values after patent US11459338B2, “Heterocyclic compounds as PRMT5 inhibitors” (JUBILANT EPISCRIBE LLC, priority 2018, dated 2022).)
